# Results taken from US10696672B2 (Pliant Therapeutics, Inc., priority 2016, dated 2020).
# Target: recombinant human integrin αvβ6 (Homo sapiens (Human), UniProt P06756+P18564)
# Experiment: Solid phase integrin αvβ6 binding assay
# Conditions: plate-coated integrin; recombinant TGFβ1 LAP 0.67 ug/ml as ligand; 2 hours at 25° C.; read-out: αvβ6 Inhibition IC50 (nM) - range
# Procedure: Example B1—Solid Phase Integrin αvβ6 Binding Assay
# Microplates were coated with recombinant human integrin αvβ6 (2 ug/ml) in PBS (100 ul/well 25° C., overnight). The coating solution was removed, washed with wash buffer (0.05% Tween 20; 0.5 mM MnCl2; in 1×TBS). Plate was blocked with 200 ul/well of Block Buffer (1% BSA; 5% sucrose; 0.5 mM MnCl2; in 1×TBS) at 37° C. for 2 h. Dilutions of testing compounds and recombinant TGFβ1 LAP (0.67 ug/ml) in binding buffer (0.05% BSA; 2.5% sucrose; 0.5 mM MnCl2; in 1×TBS) were added. The plate was incubated for 2 hours at 25° C., washed, and incubated for 1 hour with Biotin-Anti-hLAP. Bound antibody was detected by peroxidase-conjugated streptavidin. The IC50 values for testing compounds were calculated by a four-parameter logistic regression.
# The compounds tested were compound samples prepared according to procedures described in the Synthetic Examples section, with the stereochemical purity as indicated in the Examples indicated.
# Sequence of recombinant human integrin αvβ6 (P06756 31-992): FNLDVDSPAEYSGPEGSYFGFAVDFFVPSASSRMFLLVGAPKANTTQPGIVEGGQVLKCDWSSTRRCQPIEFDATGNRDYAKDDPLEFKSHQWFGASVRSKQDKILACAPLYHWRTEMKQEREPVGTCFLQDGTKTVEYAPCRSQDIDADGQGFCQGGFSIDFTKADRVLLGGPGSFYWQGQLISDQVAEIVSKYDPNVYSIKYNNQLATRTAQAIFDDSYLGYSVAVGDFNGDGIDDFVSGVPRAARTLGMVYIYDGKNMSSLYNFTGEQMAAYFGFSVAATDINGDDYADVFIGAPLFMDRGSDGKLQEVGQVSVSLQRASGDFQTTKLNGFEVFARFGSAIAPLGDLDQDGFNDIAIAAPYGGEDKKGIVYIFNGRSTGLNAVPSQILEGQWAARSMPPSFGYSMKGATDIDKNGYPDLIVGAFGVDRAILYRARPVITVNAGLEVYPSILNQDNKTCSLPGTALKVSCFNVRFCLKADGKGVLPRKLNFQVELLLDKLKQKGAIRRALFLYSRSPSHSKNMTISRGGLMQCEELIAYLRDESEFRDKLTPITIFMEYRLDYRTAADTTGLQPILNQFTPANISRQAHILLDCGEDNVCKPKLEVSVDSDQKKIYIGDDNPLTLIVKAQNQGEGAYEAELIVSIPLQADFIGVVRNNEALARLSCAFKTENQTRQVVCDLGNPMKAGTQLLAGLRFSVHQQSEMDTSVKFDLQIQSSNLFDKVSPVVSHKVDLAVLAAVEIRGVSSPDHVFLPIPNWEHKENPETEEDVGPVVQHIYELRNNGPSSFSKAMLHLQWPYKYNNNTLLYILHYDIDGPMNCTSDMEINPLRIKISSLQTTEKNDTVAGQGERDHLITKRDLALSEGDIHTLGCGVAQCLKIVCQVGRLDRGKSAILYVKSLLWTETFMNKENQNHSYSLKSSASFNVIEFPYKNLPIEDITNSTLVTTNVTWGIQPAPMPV
# Sequence of recombinant human integrin αvβ6 (P18564 22-707): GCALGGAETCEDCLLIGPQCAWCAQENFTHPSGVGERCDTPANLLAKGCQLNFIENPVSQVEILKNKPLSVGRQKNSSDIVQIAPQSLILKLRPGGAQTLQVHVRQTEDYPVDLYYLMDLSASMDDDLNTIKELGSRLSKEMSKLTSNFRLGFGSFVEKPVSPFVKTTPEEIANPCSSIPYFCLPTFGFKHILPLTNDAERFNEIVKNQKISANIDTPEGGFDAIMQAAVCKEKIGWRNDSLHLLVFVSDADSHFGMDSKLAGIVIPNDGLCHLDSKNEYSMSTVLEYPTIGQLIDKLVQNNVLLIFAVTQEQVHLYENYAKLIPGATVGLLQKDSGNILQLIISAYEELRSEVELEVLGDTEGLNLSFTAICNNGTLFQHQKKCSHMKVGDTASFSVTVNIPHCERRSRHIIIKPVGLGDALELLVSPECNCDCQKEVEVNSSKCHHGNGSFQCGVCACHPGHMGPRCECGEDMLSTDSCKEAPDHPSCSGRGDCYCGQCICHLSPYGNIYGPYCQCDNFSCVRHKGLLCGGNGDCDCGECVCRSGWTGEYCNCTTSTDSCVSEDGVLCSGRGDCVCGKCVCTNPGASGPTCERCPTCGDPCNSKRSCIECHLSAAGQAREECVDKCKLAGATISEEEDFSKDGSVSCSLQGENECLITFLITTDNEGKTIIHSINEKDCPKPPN
row,SMILES,IC50 [nM]
1,O=C(NC1CCN(CC[C@H](NC(=O)C2CCC(F)(F)CC2)C(=O)O)CC1)c1ccc2c(n1)NCCC2 [Compound 33],> 1000
2,O=C(N[C@@H](CCN1CC(CCc2ccc3c(n2)NCCC3)C(F)(F)C1)C(=O)O)c1ccccc1 (stereo partly drawn) [Compound 39],50 to 250
3,CC(C)(C)OC(=O)N[C@@H](CCN1CC(CCc2ccc3c(n2)NCCC3)CC(F)(F)C1)C(=O)O (stereo partly drawn) [Compound 40],250 to 1000
4,O=C(N[C@@H](CCN1CC(CCc2ccc3c(n2)NCCC3)CC(F)(F)C1)C(=O)O)c1ccccc1 (stereo partly drawn) [Compound 41],50 to 250
5,Cc1cc(C)n(-c2cccc(C(=O)N[C@@H](CCN3CC(CCc4ccc5c(n4)NCCC5)CC(F)(F)C3)C(=O)O)c2)n1 (stereo partly drawn) [Compound 42],250 to 1000
6,O=C(N[C@@H](CCN1CCC[C@@](F)(CCc2ccc3c(n2)NCCC3)C1)C(=O)O)c1ccccc1 [Compound 52],50 to 250
7,O=C(N[C@@H](CCN1CCC[C@@](F)(CCc2ccc3c(n2)NCCC3)C1)C(=O)O)c1cccc(F)c1Cl [Compound 62],50 to 250
8,O=C(N[C@@H](CCN1CC[C@@](F)(CCc2ccc3c(n2)NCCC3)C1)C(=O)O)c1c(Cl)cccc1Cl [Compound 63],50 to 250
9,O=C(N[C@@H](CCN1CC[C@](F)(CCc2ccc3c(n2)NCCC3)C1)C(=O)O)c1c(Cl)cccc1Cl [Compound 64],50 to 250
10,O=C(N[C@@H](CCN1CC[C@@H](CCc2ccc3c(n2)NCCC3)C1)C(=O)O)c1cccc(-c2cscn2)c1 [Compound 65],50 to 250
11,Cn1cc(C(=O)N[C@@H](CCN2CC[C@@H](CCc3ccc4c(n3)NCCC4)C2)C(=O)O)cn1 [Compound 69],50 to 250
12,CC(C)Cn1cc2c(C(=O)N[C@@H](CCN3CC[C@@H](CCc4ccc5c(n4)NCCC5)C3)C(=O)O)cccc2n1 [Compound 72],< 50
13,CCCCC(=O)N1CCCC[C@H]1C(=O)N[C@@H](CCN1CC[C@@H](CCc2ccc3c(n2)NCCC3)C1)C(=O)O [Compound 73],< 50
14,O=C(O)[C@H](CCN1CC[C@@H](CCc2ccc3c(n2)NCCC3)C1)NC(=O)[C@@H]1CCCCN1C(=O)C1CCC1 [Compound 74],< 50
15,O=C(Cc1ccccc1Cl)N[C@@H](CCN1CC[C@@H](CCc2ccc3c(n2)NCCC3)C1)C(=O)O [Compound 75],< 50
16,O=C(N[C@@H](CCN1CC[C@@H](CCc2ccc3c(n2)NCCC3)C1)C(=O)O)c1cc(F)cc(C(F)(F)F)c1 [Compound 76],< 50
17,CC(C)(O)CN1CCC[C@H]1C(=O)N[C@@H](CCN1CC[C@@H](CCc2ccc3c(n2)NCCC3)C1)C(=O)O [Compound 77],< 50
18,CCCCC(=O)N1CCC[C@@H](C(=O)N[C@@H](CCN2CC[C@@H](CCc3ccc4c(n3)NCCC4)C2)C(=O)O)C1 [Compound 78],< 50
19,CC(C)(C)C(=O)N1CCC[C@@H](C(=O)N[C@@H](CCN2CC[C@@H](CCc3ccc4c(n3)NCCC4)C2)C(=O)O)C1 [Compound 79],< 50
20,COC(=O)N1CCC[C@@H](C(=O)N[C@@H](CCN2CC[C@@H](CCc3ccc4c(n3)NCCC4)C2)C(=O)O)C1 [Compound 80],< 50
21,O=C(O)[C@H](CCN1CC[C@@H](CCc2ccc3c(n2)NCCC3)C1)NC(=O)[C@@H]1CCN1Cc1ccccc1 [Compound 81],50 to 250
22,Cn1nc(-c2ccccc2)c2cccc(C(=O)N[C@@H](CCN3CC[C@@H](CCc4ccc5c(n4)NCCC5)C3)C(=O)O)c21 [Compound 82],< 50
23,O=C(N[C@H](CCN1CC[C@@H](CCc2ccc3c(n2)NCCC3)C1)C(=O)O)c1cccc(-c2ccccc2)c1 [Compound 83],< 50
24,O=C(N[C@H](CCN1CC[C@@H](CCc2ccc3c(n2)NCCC3)C1)C(=O)O)c1cccc(-c2cncs2)c1 [Compound 84],< 50
25,O=C(N[C@H](CCN1CC[C@@H](CCc2ccc3c(n2)NCCC3)C1)C(=O)O)c1cccc(-c2cscn2)c1 [Compound 85],< 50
26,Cn1nccc1-c1cccc(C(=O)N[C@H](CCN2CC[C@@H](CCc3ccc4c(n3)NCCC4)C2)C(=O)O)c1 [Compound 86],< 50
27,Cn1cc(-c2cccc(C(=O)N[C@H](CCN3CC[C@@H](CCc4ccc5c(n4)NCCC5)C3)C(=O)O)c2)cn1 [Compound 87],< 50

# Further lines, results first:
row,IC50 [nM],SMILES
1,< 50,"Cn1ncc2cccc(C(=O)N[C@@H](CCN3CC[C@@H](CCc4ccc5c(n4)NCCC5)C3)C(=O)O)c21 [Compound 28a, (S)-2-(1-methyl-1H-indazole-7-carboxamido)-4-((R)-3-(2-(5,6,7,8-tetrahydro-1,8-naphthyridin-2-yl)ethyl)pyrrolidin-1-yl)butanoic acid]"
2,< 50,"O=C(N[C@@H](CCN1CC[C@@H](CCc2ccc3c(n2)NCCC3)C1)C(=O)O)c1ccc2cnn(C(F)F)c2c1 [Compound 29a, (S)-2-(1-(difluoromethyl)-1H-indazole-6-carboxamido)-4-((R)-3-(2-(5,6,7,8-tetrahydro-1,8-naphthyridin-2-yl)ethyl)pyrrolidin-1-yl)butanoic acid]"
3,< 50,"O=C(N[C@@H](CCN1CC[C@@H](CCc2ccc3c(n2)NCCC3)C1)C(=O)O)c1ccc2c(cnn2C(F)F)c1 [Compound 30a, (S)-2-(1-(difluoromethyl)-1H-indazole-5-carboxamido)-4-((R)-3-(2-(5,6,7,8-tetrahydro-1,8-naphthyridin-2-yl)ethyl)pyrrolidin-1-yl)butanoic acid]"
4,< 50,O=C(N[C@@H](CCN1CC[C@@H](CCc2ccc3c(n2)NCCC3)C1)C(=O)O)c1cccc2[nH]ncc12 [Compound 35]
5,< 50,O=C(O)[C@H](CCN1CC[C@@H](CCc2ccc3c(n2)NCCC3)C1)NC(=O)[C@@H]1CCCN1Cc1ccccc1 [Compound 36]
6,< 50,CC(C)(C(=O)N[C@@H](CCN1CC[C@@H](CCc2ccc3c(n2)NCCC3)C1)C(=O)O)c1cccnc1 [Compound 37]
7,< 50,O=C(N[C@@H](CCN1CC[C@@H](CCc2ccc3c(n2)NCCC3)C1)C(=O)O)C1CCOCC1 [Compound 38]
8,< 50,O=C(O)[C@H](CCN1CC[C@@H](CCc2ccc3c(n2)NCCC3)C1)NC(=O)[C@@H]1CCCN1c1ccccc1 [Compound 43]
9,< 50,CC(C)(C(=O)N[C@@H](CCN1CC[C@@H](CCc2ccc3c(n2)NCCC3)C1)C(=O)O)c1ccccc1 [Compound 44]
10,< 50,CC(C)(Cc1ccccc1)C(=O)N[C@@H](CCN1CC[C@@H](CCc2ccc3c(n2)NCCC3)C1)C(=O)O [Compound 45]
11,< 50,O=C(N[C@@H](CCN1CC[C@@H](CCc2ccc3c(n2)NCCC3)C1)C(=O)O)[C@H]1CCN(c2ccccn2)C1 [Compound 46]
12,< 50,O=C(N[C@@H](CCN1CC[C@@H](CCc2ccc3c(n2)NCCC3)C1)C(=O)O)[C@@H]1CCN(c2ccccn2)C1 [Compound 47]
13,< 50,N#Cc1cccc(C(=O)N[C@@H](CCN2CC[C@@H](CCc3ccc4c(n3)NCCC4)C2)C(=O)O)c1 [Compound 48]
14,< 50,Cn1nccc1C(=O)N[C@@H](CCN1CC[C@@H](CCc2ccc3c(n2)NCCC3)C1)C(=O)O [Compound 49]
15,< 50,O=C(N[C@@H](CCN1CC[C@@H](CCc2ccc3c(n2)NCCC3)C1)C(=O)O)c1cnccn1 [Compound 50]
16,< 50,O=C(N[C@@H](CCN1CC[C@@H](CCc2ccc3c(n2)NCCC3)C1)C(=O)O)c1cccs1 [Compound 51]
17,< 50,Cc1cc(C)n(-c2cccc(C(=O)N[C@@H](CCN3CCC[C@@](F)(CCc4ccc5c(n4)NCCC5)C3)C(=O)O)c2)n1 [Compound 53]
18,< 50,O=C(N[C@@H](CCN1CCCC(CCc2ccc3c(n2)NCCC3)C1)C(=O)O)c1ccccc1 (stereo partly drawn) [Compound 54]
19,< 50,O=C(N[C@@H](CCN1CC[C@@H](CCc2ccc3c(n2)NCCC3)C1)C(=O)O)c1cccc(-c2cccs2)c1 [Compound 55]
20,< 50,O=C(N[C@@H](CCN1CC[C@@H](CCc2ccc3c(n2)NCCC3)C1)C(=O)O)c1cccc(-c2ccccc2)c1 [Compound 56]
21,< 50,Cn1nccc1-c1cccc(C(=O)N[C@@H](CCN2CC[C@@H](CCc3ccc4c(n3)NCCC4)C2)C(=O)O)c1 [Compound 57]
22,< 50,Cn1cc(-c2cccc(C(=O)N[C@@H](CCN3CC[C@@H](CCc4ccc5c(n4)NCCC5)C3)C(=O)O)c2)cn1 [Compound 58]
23,< 50,O=C(N[C@@H](CCN1CC[C@@H](CCc2ccc3c(n2)NCCC3)C1)C(=O)O)c1cccc(-c2ncco2)c1 [Compound 59]
24,< 50,CC(C)n1ncc2c(C(=O)N[C@@H](CCN3CC[C@@H](CCc4ccc5c(n4)NCCC5)C3)C(=O)O)cccc21 [Compound 60]
25,< 50,CC(C)Cn1ncc2c(C(=O)N[C@@H](CCN3CC[C@@H](CCc4ccc5c(n4)NCCC5)C3)C(=O)O)cccc21 [Compound 61]
26,< 50,O=C(N[C@@H](CCN1CC[C@@H](CCc2ccc3c(n2)NCCC3)C1)C(=O)O)c1cccc(-c2cncs2)c1 [Compound 66]
27,< 50,O=C(N[C@@H](CCN1CC[C@@H](CCc2ccc3c(n2)NCCC3)C1)C(=O)O)c1cccc(F)c1F [Compound 67]
28,< 50,CC(C)(C)c1cccc(C(=O)N[C@@H](CCN2CC[C@@H](CCc3ccc4c(n3)NCCC4)C2)C(=O)O)c1 [Compound 68]
29,< 50,O=C(N[C@@H](CCN1CC[C@@H](CCc2ccc3c(n2)NCCC3)C1)C(=O)O)c1ccncn1 [Compound 70]
30,< 50,CC(C)n1cc2c(C(=O)N[C@@H](CCN3CC[C@@H](CCc4ccc5c(n4)NCCC5)C3)C(=O)O)cccc2n1 [Compound 71]
